Reference: paper doi:10.1101/2023.01.11.523589v2 (biorxiv, 2023)

Key:
HiBIT-WDR5 [1] = target: T1, HiBIT-WDR5 (Homo sapiens, UniProt P61964); assay: cell-based; parameters: species or system HEK293T HiBIT-WDR5; conditions: HEK-293T, read-out: CETSA thermal shifts [°C]
[2] = target: HiBIT-WDR5 (HiBIT-tagged full length WDR5) (Homo sapiens, UniProt P61964); assay: in vitro NanoBRET tracer displacement; assay type: binding
HiBIT-WDR5 [3] = target: T1, HiBIT-WDR5; assay: cell-based; parameters: species or system HEK293T HiBIT-WDR5; conditions: HEK-293T, read-out: Dmax (23-24h) at 7.5 µM in %

SMILES	ΔTm at 10 µM (HiBIT-WDR5 [1]) [°C]	IC50 [2] [µM]	Dmax at 7.5 µM (HiBIT-WDR5 [3]) [%]
Cc1ncsc1-c1ccc([C@H](C)NC(=O)[C@H]2C[C@H](O)CN2C(=O)[C@@H](NC(=O)CNC(=O)c2ccc(F)c(-c3ccc(N4C[C@@H](C)N(C)[C@@H](C)C4)c(NC(=O)c4c[nH]c(=O)cc4C(F)(F)F)c3)c2)C(C)(C)C)cc1 [MS67N]	11.6	–	–
CC(=O)N[C@H](C(=O)N1C[C@H](O)C[C@H]1C(=O)NCc1ccc(-c2scnc2C)cc1)C(C)(C)C [VH032, reference compound]	–	> 3	–
Cc1ncsc1-c1ccc([C@H](C)NC(=O)[C@@H]2C[C@@H](O)CN2C(=O)[C@@H](NC(=O)CNC(=O)c2ccc(F)c(-c3ccc(N4C[C@@H](C)N(C)[C@@H](C)C4)c(NC(=O)c4c[nH]c(=O)cc4C(F)(F)F)c3)c2)C(C)(C)C)cc1 [MS67]	13.8	–	69 ± 4
CC(=O)N[C@H](C(=O)N1C[C@H](O)C[C@H]1C(=O)NCc1ccc(-c2scnc2C)cc1)C(C)(C)C [VH032]	2.6	–	–
